Data taken from the NIST ThermoML archive (doi:10.1016/j.fluid.2017.09.008).
± gives the expanded uncertainty stated by the source.

Test: excess molar enthalpy (molar enthalpy of mixing); xn = mol fraction of the nth substance listed
Settings: 298.15 K, 101 kPa, Liquid, DSC [Setaram C80]

With Cc1ccccc1O [2-methylphenol] + CCO as the compound, how does the excess molar enthalpy (x1 = 0.1954) read?
The excess molar enthalpy was -1.11 ± 0.039 kJ/mol.

And the excess molar enthalpy (x1 = 0.4127)?
Its excess molar enthalpy is -1.62 ± 0.035 kJ/mol.

What about the excess molar enthalpy (x1 = 0.6007) of the same compound?
The excess molar enthalpy was -1.65 ± 0.037 kJ/mol.

What about the excess molar enthalpy (x1 = 0.8013) of the same compound?
The excess molar enthalpy was -0.944 ± 0.047 kJ/mol.

Which results are given for Cc1cccc(O)c1 [3-methylphenol] + CCO?
excess molar enthalpy (x1 = 0.2003): -0.792 ± 0.024 kJ/mol; excess molar enthalpy (x1 = 0.4097): -1.23 ± 0.017 kJ/mol; excess molar enthalpy (x1 = 0.5861): -1.15 ± 0.02 kJ/mol; excess molar enthalpy (x1 = 0.7875): -0.687 ± 0.025 kJ/mol

Which excess molar enthalpy (x1 = 0.0168) does the source give for COc1ccccc1O [2-methoxyphenol] + CCO here?
The excess molar enthalpy was -0.03 ± 0.022 kJ/mol.

And the excess molar enthalpy (x1 = 0.1988)?
Its excess molar enthalpy is -0.379 ± 0.017 kJ/mol.

And the excess molar enthalpy (x1 = 0.3994)?
Its excess molar enthalpy is -0.549 ± 0.011 kJ/mol.

What about the excess molar enthalpy (x1 = 0.608) of the same compound?
The excess molar enthalpy was -0.505 ± 0.013 kJ/mol.

What about the excess molar enthalpy (x1 = 0.7783) of the same compound?
Its excess molar enthalpy is -0.238 ± 0.019 kJ/mol.
